Measurements published in US10913744B2, “LRRK2 inhibitors and methods of making and using the same” (Dana-Farber Cancer Institute, Inc., priority 2015, dated 2021).
Like-named read-outs stand apart in the source and are kept apart here.

Assays:
[1] = target: RSK1 (Homo sapiens (Human), UniProt Q15418); assay: Dundee profiling
[2] = target: TTBK1 (Homo sapiens (Human), UniProt Q5TCY1); assay: Dundee profiling
[3] = target: MAP4K3 (Homo sapiens (Human), UniProt Q8IVH8); assay: KinomeScan; type: binding; details: 1 uM
[4] = target: ROCK2 (Homo sapiens (Human), UniProt O75116); assay: Dundee profiling
[5] = target: PAK2 (Homo sapiens (Human), UniProt Q13177); assay: Dundee profiling
[6] = target: TESK1 (Homo sapiens (Human), UniProt Q15569); assay: Dundee profiling
[7] = target: p38b MAPK (Homo sapiens (Human), UniProt Q15759); assay: Dundee profiling
[8] = target: BTK (Homo sapiens (Human), UniProt Q06187); assay: KinomeScan; type: binding; details: 1 uM
[9] = target: MELK (Homo sapiens (Human), UniProt Q14680); assay: Dundee profiling
[10] = target: PDGFRA (Homo sapiens (Human), UniProt P16234); assay: Dundee profiling
PDGFRA, sequence (P16234 whole entry, looked up, species assumed): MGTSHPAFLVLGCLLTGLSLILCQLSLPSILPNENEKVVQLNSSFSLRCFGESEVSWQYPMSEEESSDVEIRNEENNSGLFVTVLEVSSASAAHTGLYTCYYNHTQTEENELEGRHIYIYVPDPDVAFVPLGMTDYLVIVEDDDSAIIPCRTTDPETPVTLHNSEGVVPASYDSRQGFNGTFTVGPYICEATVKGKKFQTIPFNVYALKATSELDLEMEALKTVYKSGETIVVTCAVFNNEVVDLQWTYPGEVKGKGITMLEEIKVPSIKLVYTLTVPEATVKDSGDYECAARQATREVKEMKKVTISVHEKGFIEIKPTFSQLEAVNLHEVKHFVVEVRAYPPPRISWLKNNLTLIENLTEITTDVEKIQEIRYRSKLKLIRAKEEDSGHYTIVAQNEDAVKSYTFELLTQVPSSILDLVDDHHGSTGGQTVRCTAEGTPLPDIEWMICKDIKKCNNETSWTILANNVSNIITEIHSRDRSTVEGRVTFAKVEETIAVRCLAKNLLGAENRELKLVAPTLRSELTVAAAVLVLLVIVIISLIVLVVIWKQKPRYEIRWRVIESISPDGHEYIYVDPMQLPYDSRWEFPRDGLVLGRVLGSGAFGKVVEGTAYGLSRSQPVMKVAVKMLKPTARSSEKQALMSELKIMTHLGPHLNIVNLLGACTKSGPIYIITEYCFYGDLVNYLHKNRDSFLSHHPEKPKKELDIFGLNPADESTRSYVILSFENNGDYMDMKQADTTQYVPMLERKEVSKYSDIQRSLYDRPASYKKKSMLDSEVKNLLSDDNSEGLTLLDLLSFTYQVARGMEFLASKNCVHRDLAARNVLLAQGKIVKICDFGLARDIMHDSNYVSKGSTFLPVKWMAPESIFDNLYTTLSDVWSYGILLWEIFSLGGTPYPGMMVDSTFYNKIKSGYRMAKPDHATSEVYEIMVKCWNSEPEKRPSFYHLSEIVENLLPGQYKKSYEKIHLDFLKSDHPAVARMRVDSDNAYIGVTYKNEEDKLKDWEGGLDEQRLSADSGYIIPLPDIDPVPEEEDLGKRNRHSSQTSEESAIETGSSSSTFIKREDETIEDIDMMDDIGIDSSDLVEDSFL

[11] = target: RSK4 (Kin.Dom.1-N-terminal) (Homo sapiens (Human), UniProt Q9UK32); assay: KinomeScan; type: binding; details: 1 uM
RSK4 (Kin.Dom.1-N-terminal), sequence (Q9UK32 73-330): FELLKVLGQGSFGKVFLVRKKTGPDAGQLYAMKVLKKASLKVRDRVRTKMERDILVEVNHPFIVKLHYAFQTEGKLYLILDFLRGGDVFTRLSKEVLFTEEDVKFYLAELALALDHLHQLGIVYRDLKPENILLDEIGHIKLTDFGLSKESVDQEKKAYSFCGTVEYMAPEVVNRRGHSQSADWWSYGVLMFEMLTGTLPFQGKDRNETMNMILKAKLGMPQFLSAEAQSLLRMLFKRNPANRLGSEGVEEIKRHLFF

[12] = target: ITK (Homo sapiens (Human), UniProt Q08881); assay: KinomeScan; type: binding; details: 1 uM
[13] = target: PKMYT1 (Homo sapiens (Human), UniProt Q99640); assay: KinomeScan; type: binding; details: 1 uM
[14] = target: RIPK2 (Homo sapiens (Human), UniProt O43353); assay: Dundee profiling
[15] = target: CSNK1G3 (Homo sapiens (Human), UniProt Q9Y6M4); assay: KinomeScan; type: binding; details: 1 uM
[16] = target: EPH-A2 (Homo sapiens (Human), UniProt P29317); assay: Dundee profiling
[17] = target: CDK8 (Homo sapiens (Human), UniProt P49336); assay: KinomeScan; type: binding; details: 1 uM
[18] = target: JNK1 (Homo sapiens (Human), UniProt P45983); assay: KinomeScan; type: binding; details: 1 uM
[19] = target: TIE2 (Homo sapiens (Human), UniProt Q02763); assay: Dundee profiling
[20] = target: SGK1 (Homo sapiens (Human), UniProt O00141); assay: Dundee profiling
[21] = target: MNK1 (Homo sapiens (Human), UniProt Q9BUB5); assay: Dundee profiling
[22] = target: PIM2 (Homo sapiens (Human), UniProt Q9P1W9); assay: Dundee profiling
[23] = tested on: AMPK; assay: Dundee profiling
[24] = target: EGFR (S752-I759del) (Homo sapiens (Human), UniProt P00533, DEL752-759); assay: KinomeScan; type: binding; details: 1 uM
[25] = target: DYRK1A (Homo sapiens (Human), UniProt Q13627); assay: Dundee profiling
[26] = target: MARK1 (Homo sapiens (Human), UniProt Q9P0L2); assay: Dundee profiling
[27] = target: PLK1 (Homo sapiens (Human), UniProt P53350); assay: Dundee profiling
PLK1, sequence (P53350 whole entry, looked up, species assumed): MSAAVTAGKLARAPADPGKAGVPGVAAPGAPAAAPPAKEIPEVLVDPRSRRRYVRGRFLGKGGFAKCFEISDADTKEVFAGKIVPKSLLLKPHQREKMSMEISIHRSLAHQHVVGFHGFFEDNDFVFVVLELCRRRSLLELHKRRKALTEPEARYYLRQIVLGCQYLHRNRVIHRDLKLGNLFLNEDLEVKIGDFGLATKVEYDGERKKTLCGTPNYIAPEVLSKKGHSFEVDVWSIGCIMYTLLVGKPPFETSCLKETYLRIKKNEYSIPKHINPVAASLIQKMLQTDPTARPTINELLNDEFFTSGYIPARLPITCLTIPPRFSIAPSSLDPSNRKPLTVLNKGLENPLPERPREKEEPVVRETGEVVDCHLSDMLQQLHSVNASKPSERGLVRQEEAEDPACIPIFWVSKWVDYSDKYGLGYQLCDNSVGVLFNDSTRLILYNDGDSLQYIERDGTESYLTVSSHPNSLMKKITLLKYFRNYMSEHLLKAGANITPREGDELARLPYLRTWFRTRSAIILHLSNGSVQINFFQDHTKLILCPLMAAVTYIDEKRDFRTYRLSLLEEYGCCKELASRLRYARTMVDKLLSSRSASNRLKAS

[28] = target: PKD1 (Homo sapiens (Human), UniProt Q15139); assay: Dundee profiling
[29] = target: CSK (Homo sapiens (Human), UniProt P41240); assay: Dundee profiling
[30] = target: MST2 (Homo sapiens (Human), UniProt Q13188); assay: Dundee profiling
MST2, sequence (Q13188 whole entry, looked up, species assumed): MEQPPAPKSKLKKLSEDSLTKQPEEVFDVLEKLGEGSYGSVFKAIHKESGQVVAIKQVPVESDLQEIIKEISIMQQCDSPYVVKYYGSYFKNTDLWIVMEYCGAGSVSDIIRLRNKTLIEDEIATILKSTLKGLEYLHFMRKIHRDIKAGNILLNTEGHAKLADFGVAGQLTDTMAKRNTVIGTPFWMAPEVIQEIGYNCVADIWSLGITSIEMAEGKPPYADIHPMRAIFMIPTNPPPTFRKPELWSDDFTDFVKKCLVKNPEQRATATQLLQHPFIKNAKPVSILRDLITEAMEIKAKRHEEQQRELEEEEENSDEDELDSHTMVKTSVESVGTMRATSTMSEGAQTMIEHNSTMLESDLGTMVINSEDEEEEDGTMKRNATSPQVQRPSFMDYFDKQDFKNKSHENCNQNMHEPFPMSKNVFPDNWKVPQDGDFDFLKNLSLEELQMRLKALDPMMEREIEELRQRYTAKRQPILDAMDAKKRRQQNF

[31] = target: JAK1 (JH1domain-catalytic) (Homo sapiens (Human), UniProt P23458); assay: KinomeScan; type: binding; details: 1 uM
[32] = target: EGFR (E746-A750del) (Homo sapiens (Human), UniProt P00533, DEL746-750); assay: KinomeScan; type: binding; details: 1 uM
[33] = target: wild type LRRK2 (Homo sapiens (Human), UniProt Q5S007); assay: LRRK2 enzyme kinase assay, wild type; type: biochemical; details: Table 1; ATP at Km 36 μm; read-out: Enzyme IC50 wt
[34] = target: SIK3 (Homo sapiens (Human), UniProt Q9Y2K2); assay: Dundee profiling
SIK3, sequence (Q9Y2K2 whole entry, species assumed): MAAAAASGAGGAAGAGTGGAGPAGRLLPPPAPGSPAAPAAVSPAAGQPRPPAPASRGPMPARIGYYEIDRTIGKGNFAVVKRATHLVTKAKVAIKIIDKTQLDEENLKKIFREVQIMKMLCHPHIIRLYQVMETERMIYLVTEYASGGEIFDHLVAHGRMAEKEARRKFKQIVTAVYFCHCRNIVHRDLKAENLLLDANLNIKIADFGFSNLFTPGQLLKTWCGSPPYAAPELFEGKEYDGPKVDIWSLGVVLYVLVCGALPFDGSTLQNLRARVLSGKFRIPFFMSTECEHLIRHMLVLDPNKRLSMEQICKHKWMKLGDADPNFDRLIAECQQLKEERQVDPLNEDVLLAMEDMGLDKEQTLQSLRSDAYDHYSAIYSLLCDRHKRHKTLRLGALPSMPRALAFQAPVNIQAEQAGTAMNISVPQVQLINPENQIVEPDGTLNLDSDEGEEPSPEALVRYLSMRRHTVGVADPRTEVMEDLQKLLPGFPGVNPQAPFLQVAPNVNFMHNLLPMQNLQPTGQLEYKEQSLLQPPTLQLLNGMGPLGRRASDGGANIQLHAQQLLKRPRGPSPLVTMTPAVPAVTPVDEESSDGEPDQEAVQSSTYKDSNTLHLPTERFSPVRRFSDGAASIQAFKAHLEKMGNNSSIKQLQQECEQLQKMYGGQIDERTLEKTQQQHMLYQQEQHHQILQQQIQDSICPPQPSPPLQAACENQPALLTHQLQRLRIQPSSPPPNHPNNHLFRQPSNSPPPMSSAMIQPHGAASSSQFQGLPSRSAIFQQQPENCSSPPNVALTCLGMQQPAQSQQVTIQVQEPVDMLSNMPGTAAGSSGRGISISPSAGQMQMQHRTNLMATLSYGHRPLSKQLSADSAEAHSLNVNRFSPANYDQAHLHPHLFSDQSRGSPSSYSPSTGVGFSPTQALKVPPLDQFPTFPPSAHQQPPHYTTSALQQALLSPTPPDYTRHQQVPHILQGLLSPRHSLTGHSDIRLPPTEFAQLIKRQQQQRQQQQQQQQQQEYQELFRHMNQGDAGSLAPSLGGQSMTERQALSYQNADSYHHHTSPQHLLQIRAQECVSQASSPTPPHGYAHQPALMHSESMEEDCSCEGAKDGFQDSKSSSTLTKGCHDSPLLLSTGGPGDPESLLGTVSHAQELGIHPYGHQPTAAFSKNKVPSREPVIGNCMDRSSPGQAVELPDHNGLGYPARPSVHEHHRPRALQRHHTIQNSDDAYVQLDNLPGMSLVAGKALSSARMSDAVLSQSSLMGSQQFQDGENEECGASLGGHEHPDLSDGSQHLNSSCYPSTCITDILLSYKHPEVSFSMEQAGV

[35] = read-out: percent remaining enzymatic activity, I1, 1 μM
[36] = read-out: percent remaining enzymatic activity, I10
[37] = read-out: percent remaining enzymatic activity

TTBK1, sequence (Q5TCY1 whole entry, species assumed): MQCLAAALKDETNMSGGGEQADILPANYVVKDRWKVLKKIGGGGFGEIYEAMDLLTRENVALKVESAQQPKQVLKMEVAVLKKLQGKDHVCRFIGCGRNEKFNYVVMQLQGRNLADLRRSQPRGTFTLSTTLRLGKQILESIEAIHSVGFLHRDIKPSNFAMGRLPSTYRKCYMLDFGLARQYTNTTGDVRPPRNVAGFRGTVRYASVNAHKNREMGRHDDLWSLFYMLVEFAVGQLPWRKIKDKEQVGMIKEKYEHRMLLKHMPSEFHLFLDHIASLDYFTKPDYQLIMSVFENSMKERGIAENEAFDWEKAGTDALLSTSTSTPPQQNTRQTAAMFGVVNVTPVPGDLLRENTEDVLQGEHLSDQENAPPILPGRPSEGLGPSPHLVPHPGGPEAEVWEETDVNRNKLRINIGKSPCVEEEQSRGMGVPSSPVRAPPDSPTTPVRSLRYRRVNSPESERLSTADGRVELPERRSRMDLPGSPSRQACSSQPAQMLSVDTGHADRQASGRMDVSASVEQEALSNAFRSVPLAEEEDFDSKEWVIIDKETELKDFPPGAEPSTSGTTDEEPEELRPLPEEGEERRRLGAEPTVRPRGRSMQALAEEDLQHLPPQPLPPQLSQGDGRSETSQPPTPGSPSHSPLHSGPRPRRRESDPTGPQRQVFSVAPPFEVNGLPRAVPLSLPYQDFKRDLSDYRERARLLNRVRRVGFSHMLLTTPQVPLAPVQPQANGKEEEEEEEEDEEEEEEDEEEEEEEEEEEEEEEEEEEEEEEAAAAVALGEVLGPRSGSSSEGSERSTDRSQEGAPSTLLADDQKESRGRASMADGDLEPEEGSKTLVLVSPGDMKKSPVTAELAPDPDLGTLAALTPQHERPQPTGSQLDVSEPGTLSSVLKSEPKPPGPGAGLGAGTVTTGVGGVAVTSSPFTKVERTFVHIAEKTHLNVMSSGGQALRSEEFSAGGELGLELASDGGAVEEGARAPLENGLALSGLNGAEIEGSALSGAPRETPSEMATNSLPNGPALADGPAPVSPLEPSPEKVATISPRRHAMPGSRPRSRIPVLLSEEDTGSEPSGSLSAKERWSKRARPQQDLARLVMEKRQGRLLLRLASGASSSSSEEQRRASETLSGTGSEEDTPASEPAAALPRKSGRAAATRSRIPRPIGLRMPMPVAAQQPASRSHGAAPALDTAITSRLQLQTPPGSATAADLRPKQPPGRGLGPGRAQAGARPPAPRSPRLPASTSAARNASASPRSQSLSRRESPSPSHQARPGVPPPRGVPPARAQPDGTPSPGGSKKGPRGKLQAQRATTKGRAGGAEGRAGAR

CNc1nc(Nc2ccc(C(=O)N3CCOCC3)cc2OC)nc2[nH]cc(Cl)c12 [Compound 18, (4-((5-chloro-4-(methylamino)-7H-pyrrolo[2,3-d]pyrimidin-2-yl)amino)-3-methoxyphenyl)(morpholino)methanone]
remaining activity at 1 µM [1, 35]: 96%
remaining activity at 1 µM [1, 36]: 60%
remaining activity at 1 µM [2, 35]: 103%
remaining activity at 1 µM [2, 36]: 98%
KinomeScan value [3]: 100
remaining activity at 1 µM [4, 35]: 113%
remaining activity at 1 µM [4, 36]: 101%
remaining activity at 1 µM [5, 35]: 110%
remaining activity at 1 µM [5, 36]: 102%
remaining activity at 1 µM [6, 35]: 97%
remaining activity at 1 µM [6, 36]: 95%
remaining activity at 1 µM [7, 35]: 108%
remaining activity at 1 µM [7, 36]: 79%
KinomeScan value [8]: 100
remaining activity at 1 µM [9, 35]: 118%
remaining activity at 1 µM [9, 36]: 79%
remaining activity at 1 µM [10, 35]: 109%
remaining activity at 1 µM [10, 36]: 89%
KinomeScan value [11]: 93
KinomeScan value [12]: 88
KinomeScan value [13]: 100
remaining activity at 1 µM [14, 35]: 102%
remaining activity at 1 µM [14, 36]: 83%
KinomeScan value [15]: 100
remaining activity at 1 µM [16, 35]: 104%
remaining activity at 1 µM [16, 36]: 101%
KinomeScan value [17]: 74
KinomeScan value [18]: 60
remaining activity at 1 µM [19, 35]: 104%
remaining activity at 1 µM [19, 36]: 94%
remaining activity at 1 µM [20, 35]: 86%
remaining activity at 1 µM [20, 36]: 76%
remaining activity at 1 µM [21, 35]: 102%
remaining activity at 1 µM [21, 36]: 78%
remaining activity at 1 µM [22, 35]: 95%
remaining activity at 1 µM [22, 36]: 82%
percent remaining enzymatic activity ([23]; I1, 1 μM): 112%
percent remaining enzymatic activity ([23]; I10): 103%
KinomeScan value [24]: 97
remaining activity at 1 µM [25, 35]: 49%
remaining activity at 1 µM [25, 36]: 8%
remaining activity at 1 µM [26, 35]: 89%
remaining activity at 1 µM [26, 36]: 77%
remaining activity at 1 µM [27, 35]: 62%
remaining activity at 1 µM [27, 36]: 13%
remaining activity at 1 µM [28, 35]: 47%
remaining activity at 1 µM [28, 36]: 7%
percent remaining enzymatic activity ([29]; I10): 92%
remaining activity at 1 µM [29, 37]: 89%
remaining activity at 1 µM [30, 35]: 90%
remaining activity at 1 µM [30, 36]: 82%
KinomeScan value [31]: 77
KinomeScan value [32]: 100
IC50 [33]: 6.5 nM
percent remaining enzymatic activity ([34]; I10): 96%
remaining activity at 1 µM [34, 37]: 107%
